Laboratory results published in ChEMBL document CHEMBL3352698, “Synthesis of 3',4'-difluoro-3'-deoxyribonucleosides and its evaluation of the biological activities: discovery of a novel type of anti-HCV agent 3',4'-difluorocordycepin” (Bioorg Med Chem, 2014).
pEC50: −log10 of the molar value. Active and inactive are the calls of the source. The calls are words filed in the database; no cut-off is given here.

Experiments:
Leukemia cell = assay: Cytotoxicity against mouse leukemia cells; type: functional, cell-based
Cancer cell lines = assay: Cytotoxicity against human cervical cancer cells; type: functional, cell-based
Hepatitis C virus [1] = assay: Antiviral activity against Hepatitis C virus infected in […] after 72 hrs by luciferase reporter gene assay; type: functional, organism-based, Hepacivirus hominis; details: OR6, 72 h
[2] = Selectivity index, ratio of CC50 for human ORL8 cells to EC50 for Hepatitis C virus infected in […]; type: toxicity, cell-based; details: read-out: Ratio CC50/EC50
[3] = Cytotoxicity against human ORL8 cells after 72 hrs by WST-1 assay; type: cell-based
Human alphaherpesvirus 3 = assay: Antimicrobial activity against Varicella-zoster virus; type: functional, organism-based
[4] = tested on: Vesicular stomatitis virus; assay: Antimicrobial activity against Vesicular stomatitis virus; type: functional, organism-based
Herpesviridae sp. = assay: Antimicrobial activity against Herpes simplex virus; type: functional, organism-based
Human betaherpesvirus 5 = assay: Antimicrobial activity against Human cytomegalovirus; type: functional, organism-based
Hepatitis C virus [5] = assay: Antiviral activity against Hepatitis C virus infected in mouse HB-1 cells after 24 hrs by ribonuclease replicon assay; type: functional, organism-based, Hepacivirus hominis; details: HB1, 24 h

Compound	inhibition (Leukemia cell)	inhibition (Cancer cell lines)	pEC50 (Hepatitis C virus [1])	selectivity ratio [2]	CC50 at 72 h [3] [µM]	Activity (Human alphaherpesvirus 3)	Activity [4]	Activity (Herpesviridae sp.)	Activity (Human betaherpesvirus 5)	pEC50 (Hepatitis C virus [5])
Nc1ncnc2c1ncn2[C@@H]1O[C@@](F)(CO)[C@@H](F)[C@@H]1O	inactive	inactive	< 3.70	> 1	> 200	inactive	inactive	inactive	inactive	
Nc1ccn([C@@H]2O[C@](F)(CO)[C@H](F)[C@H]2O)c(=O)n1			< 4.00	< 0.36	36					
Nc1ccn([C@@H]2O[C@@](F)(CO)[C@H](F)[C@H]2O)c(=O)n1			< 4.00	< 0.23	23					
CC(C)OC(=O)[C@H](C)N[P@](=O)(OC[C@H]1O[C@@H](n2ccc(=O)[nH]c2=O)[C@](C)(F)[C@@H]1O)Oc1ccccc1 [SOFOSBUVIR]			6.85	> 36	> 5					
Nc1ncnc2c1ncn2[C@@H]1O[C@@](F)(CO)[C@H](F)[C@H]1O	inactive	inactive	< 4.00	> 1	> 100	inactive	inactive	inactive	inactive	
Nc1ccn([C@@H]2O[C@](F)(CO)[C@@H](F)[C@H]2O)c(=O)n1			< 4.30	< 1	> 50					
Nc1ncnc2c1ncn2[C@@H]1O[C@](F)(CO)[C@H](F)[C@H]1O	inactive	inactive	< 3.70	> 1	> 200	inactive	inactive	inactive	inactive	
Nc1ncnc2c1ncn2[C@@H]1O[C@H](CO)C[C@H]1O [CORDYCEPIN]			4.15	0.19	13					
NC(=O)c1ncn([C@@H]2O[C@H](CO)[C@@H](O)[C@H]2O)n1 [RIBAVIRIN]			5.25	18	100					
Nc1ncnc2c1ncn2[C@@H]1O[C@H](CO)[C@@H](F)[C@H]1O										5.92
Nc1ncnc2c1ncn2[C@@H]1O[C@](F)(CO)[C@@H](F)[C@H]1O	inactive	inactive	5.33	19	90	inactive	inactive	inactive	inactive	
